Experimental data as given in patent EP1247803A2, “Indolinone compounds suitable for modulation of protein kinases” (Sugen, Inc., priority 1996, dated 1998).

Target: T1, EGFR (Homo sapiens, UniProt P00533)
T1 construct: Add 7 ug A431 cell lysate per well (EGFR source); endogenous in cells; host or cells: A431
Test: EGFR ELISA assay (in vitro kinase activity, EGFR captured from A431 cell lysate)
Assay type: biochemical
Design: concentration or dose not given beside the values
Procedure, shortened: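 EGFR from A431 lysate was captured on plates coated with anti-EGFR antibody. Compounds were added 30 min before a 5 min phosphorylation with 3 µM ATP/5 mM MnCl2, which was stopped with 20 mM EDTA. Phosphotyrosine was detected with rabbit anti-phosphotyrosine, then a peroxidase-conjugated secondary and ABTS/H2O2, read at 410 nm.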

T1 sequence (P00533 25-1210): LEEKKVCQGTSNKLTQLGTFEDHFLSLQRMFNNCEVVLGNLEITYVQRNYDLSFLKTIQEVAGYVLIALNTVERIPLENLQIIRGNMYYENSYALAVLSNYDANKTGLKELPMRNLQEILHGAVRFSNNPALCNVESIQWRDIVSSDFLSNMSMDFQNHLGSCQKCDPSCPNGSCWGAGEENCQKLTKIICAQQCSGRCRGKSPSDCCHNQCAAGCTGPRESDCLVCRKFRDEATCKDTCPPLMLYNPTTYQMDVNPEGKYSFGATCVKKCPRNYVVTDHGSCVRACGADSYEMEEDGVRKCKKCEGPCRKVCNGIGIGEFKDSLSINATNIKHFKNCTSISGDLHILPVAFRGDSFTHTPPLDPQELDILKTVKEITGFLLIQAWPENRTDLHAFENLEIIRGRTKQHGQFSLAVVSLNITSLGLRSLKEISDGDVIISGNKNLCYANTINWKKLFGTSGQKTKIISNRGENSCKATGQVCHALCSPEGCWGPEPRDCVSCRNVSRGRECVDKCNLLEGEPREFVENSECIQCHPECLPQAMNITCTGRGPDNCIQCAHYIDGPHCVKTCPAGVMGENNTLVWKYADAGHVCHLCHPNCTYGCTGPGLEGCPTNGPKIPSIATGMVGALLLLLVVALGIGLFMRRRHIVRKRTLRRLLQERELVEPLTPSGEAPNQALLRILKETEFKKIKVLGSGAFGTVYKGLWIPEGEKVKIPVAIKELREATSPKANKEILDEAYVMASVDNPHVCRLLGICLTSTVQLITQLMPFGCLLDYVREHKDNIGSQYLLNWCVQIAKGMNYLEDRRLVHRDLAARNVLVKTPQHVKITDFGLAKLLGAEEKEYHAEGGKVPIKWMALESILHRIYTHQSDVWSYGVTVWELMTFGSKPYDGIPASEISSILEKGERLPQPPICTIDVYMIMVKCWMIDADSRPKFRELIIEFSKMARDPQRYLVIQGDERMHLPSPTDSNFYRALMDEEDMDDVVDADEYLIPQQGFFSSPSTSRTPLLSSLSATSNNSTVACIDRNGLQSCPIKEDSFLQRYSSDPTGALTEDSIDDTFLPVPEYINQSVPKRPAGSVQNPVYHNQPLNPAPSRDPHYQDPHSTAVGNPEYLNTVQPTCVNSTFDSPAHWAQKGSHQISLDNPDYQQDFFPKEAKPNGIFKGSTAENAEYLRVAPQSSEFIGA

SMILES	Biochem EGFR %Inhibition [%]
CN(C)c1ccc(C=C2C(=O)Nc3ccc(CCCl)cc32)cc1 [10719/G08]	65.4
COc1ccc(C=C2C(=O)Nc3ccc(Br)c(C)c32)cc1OC [10720/C04]	-13.1
CSc1ccc(C=C2C(=O)Nc3c(Br)cc(Br)cc32)s1 [10720/A07]	42.5
CCOc1cc(C=C2C(=O)Nc3ccc(I)cc32)ccc1O [10720/B09]	37.6
CCOc1cc(C=C2C(=O)Nc3c(Br)cc(Br)cc32)ccc1O [10720/A09]	8.6
CNS(=O)(=O)c1ccc2c(c1)C(=Cc1ccc(O)cc1)C(=O)N2 [10719/D07]	13.7
O=C1Nc2ccc(S(=O)(=O)N3CCOCC3)cc2C1=Cc1cccc([N+](=O)[O-])c1 [10719/F10]	-17.7
CN(C)c1ccc(C=C2C(=O)Nc3ccc(S(=O)(=O)N4CCOCC4)cc32)cc1 [10719/F08]	90.9
O=C1Nc2c(Br)cc(Br)cc2C1=Cc1ccccc1O [10720/A05]	-4.4
Cc1cc(O)cc(O)c1C=C1C(=O)Nc2ccc(Br)c(C)c21 [10720/C08]	-1.1
O=C1Nc2ccc(I)cc2C1=Cc1ncc[nH]1 [10720/B11]	22.4
COc1ccc(C=C2C(=O)Nc3c(Br)cc(Br)cc32)cc1OC [10720/A04]	-1.8
O=C1Nc2ccc(S(=O)(=O)Nc3ccc(C(F)(F)F)cc3)cc2C1=Cc1ccc(O)c(O)c1 [10719/E03]	73.0
Cc1ccc(C=C2C(=O)Nc3ccc(I)cc32)s1 [10717/B07]	58.3
COc1cc(OC)c(C=C2C(=O)Nc3ccc(S(=O)(=O)N4CCOCC4)cc32)c(OC)c1 [10719/F06]	-26.0
CCOc1ccc(C=C2C(=O)Nc3ccc(S(=O)(=O)NC)cc32)cc1OC [10719/D02]	9.8
Cc1c(Br)ccc2c1C(=Cc1ccccc1)C(=O)N2 [10720/C06]	-9.7
CCOc1ccccc1C=C1C(=O)Nc2ccc(Br)c(C)c21 [10717/C02]	-0.4
CCOc1ccc(C=C2C(=O)Nc3ccc(S(=O)(=O)Nc4ccc(C(F)(F)F)cc4)cc32)cc1OC [10719/E02]	40.0
COc1ccc(C=C2C(=O)Nc3ccc(CCCl)cc32)c(OC)c1 [10719/G04]	-4.7
O=C1Nc2ccc(I)cc2C1=Cc1c(F)cc(F)cc1F [10720/B02]	18.4
O=C1Nc2ccc(S(=O)(=O)N3CCOCC3)cc2C1=Cc1ccc(F)cc1C(F)(F)F [10719/F11]	-66.3
COc1ccc(O)c(C=C2C(=O)Nc3ccc(Br)c(C)c32)c1 [10720/C10]	2.0
COc1ccc(O)c(C=C2C(=O)Nc3c(Br)cc(Br)cc32)c1 [10720/A10]	-2.7
O=C1Nc2ccc(CCCl)cc2C1=Cc1ccc(F)cc1C(F)(F)F [10719/G11]	-44.1
O=C1Nc2c(Br)cc(Br)cc2C1=Cc1c(F)cc(F)cc1F [10720/A02]	11.3
CNS(=O)(=O)c1ccc2c(c1)C(=Cc1ccc(N(C)C)cc1)C(=O)N2 [10719/D08]	-12.2

SMILES	Biochem EGFR %Inhibition [%]
CNS(=O)(=O)c1ccc2c(c1)C(=Cc1cccc([N+](=O)[O-])c1)C(=O)N2 [10719/D10]	-11.8
O=C1Nc2ccc(CCCl)cc2C1=Cc1cccc([N+](=O)[O-])c1 [10719/G10]	-27.6
O=C1Nc2ccc(CCCl)cc2C1=Cc1ccc(O)cc1 [10719/G07]	-8.1
COc1ccc(C=C2C(=O)Nc3ccc(I)cc32)cc1OC [10720/B04]	50.5
CCOc1ccc(C=C2C(=O)Nc3ccc(CCCl)cc32)cc1OC [10719/G02]	-12.2
COc1ccc(O)c(C=C2C(=O)Nc3ccc(I)cc32)c1 [10720/B10]	50.2
O=C1Nc2ccc(I)cc2C1=Cc1ccccc1O [10720/B05]	58.4
CN(C)c1ccc(C=C2C(=O)Nc3ccc(S(=O)(=O)Nc4ccc(C(F)(F)F)cc4)cc32)cc1 [10719/E08]	36.8
CCOc1cc(C=C2C(=O)Nc3ccc(Br)c(C)c32)ccc1O [10720/C09]	44.7
O=C1Nc2ccc(CCCl)cc2C1=Cc1ccc(F)cc1Cl [10719/G09]	-32.8
CNS(=O)(=O)c1ccc2c(c1)C(=Cc1ccc(O)c(O)c1)C(=O)N2 [10719/D03]	95.7
O=C1Nc2ccc(S(=O)(=O)Nc3ccc(C(F)(F)F)cc3)cc2C1=Cc1ccc(O)cc1 [10719/E07]	-18.4
O=C1Nc2ccc(S(=O)(=O)Nc3ccc(C(F)(F)F)cc3)cc2C1=Cc1ccc(F)cc1C(F)(F)F [10719/E11]	-51.8
COc1cc(O)ccc1C=C1C(=O)Nc2ccc(I)cc21 [10720/B03]	32.3
COc1cc(O)ccc1C=C1C(=O)Nc2c(Br)cc(Br)cc21 [10720/A03]	-5.3
COc1cccc(O)c1C=C1C(=O)Nc2ccc(I)cc21 [10717/B10]	16.1
CCOc1ccc(C=C2C(=O)Nc3ccc(S(=O)(=O)N4CCOCC4)cc32)cc1OC [10719/F02]	14.8
O=C1Nc2ccc(S(=O)(=O)N3CCOCC3)cc2C1=Cc1ccc(F)cc1Cl [10719/F09]	-17.7
CNS(=O)(=O)c1ccc2c(c1)C(=Cc1c(F)cc(F)cc1F)C(=O)N2 [10720/D02]	11.1
CNS(=O)(=O)c1ccc2c(c1)C(=Cc1ccc(F)cc1Cl)C(=O)N2 [10719/D09]	-3.1
Cc1c(Br)ccc2c1C(=Cc1cccs1)C(=O)N2 [10717/C03]	18.0
Cc1c(Br)ccc2c1C(=Cc1ncc[nH]1)C(=O)N2 [10720/C11]	-21.9
CCc1c(C)[nH]c(C=C2C(=O)Nc3ccc(S(=O)(=O)NC)cc32)c1C [10719/D05]	18.5
O=C1Nc2ccc(I)cc2C1=Cc1ccccc1 [10720/B06]	21.2
O=C1Nc2ccc(S(=O)(=O)N3CCOCC3)cc2C1=Cc1ccc(O)c(O)c1 [10719/F03]	-30.8
CNS(=O)(=O)c1ccc2c(c1)C(=Cc1ccc(OC)cc1OC)C(=O)N2 [10719/D04]	15.3
COc1ccc(C=C2C(=O)Nc3ccc(S(=O)(=O)N4CCOCC4)cc32)c(OC)c1 [10719/F04]	-6.0

SMILES	Biochem EGFR %Inhibition [%]
O=C1Nc2ccc(S(=O)(=O)Nc3ccc(C(F)(F)F)cc3)cc2C1=Cc1ccc(F)cc1Cl [10719/E09]	-33.1
O=C1Nc2ccc(I)cc2C1=Cc1ccc[nH]1 [10717/B09]	78.3
O=C1Nc2c(Br)cc(Br)cc2C1=Cc1ccccc1 [10720/A06]	44.7
O=C1Nc2ccc(CCCl)cc2C1=Cc1ccc(O)c(O)c1 [10719/G03]	89.5
O=C1Nc2ccc(I)cc2C1=Cc1ccc(Br)cc1 [10717/B08]	60.5
Cc1c(Br)ccc2c1C(=Cc1cccc([N+](=O)[O-])c1)C(=O)N2 [10719/C10]	10.7
CSc1ccc(C=C2C(=O)Nc3ccc(I)cc32)s1 [10720/B07]	52.0
Cc1cc(O)cc(O)c1C=C1C(=O)Nc2ccc(I)cc21 [10720/B08]	-12.6
CCc1c(C)[nH]c(C=C2C(=O)Nc3ccc(S(=O)(=O)N4CCOCC4)cc32)c1C [10719/F05]	35.0
CCc1c(C)[nH]c(C=C2C(=O)Nc3ccc(S(=O)(=O)Nc4ccc(C(F)(F)F)cc4)cc32)c1C [10719/E05]	21.2
COc1ccc(C=C2C(=O)Nc3ccc(S(=O)(=O)Nc4ccc(C(F)(F)F)cc4)cc32)c(OC)c1 [10719/E04]	-7.4
CNS(=O)(=O)c1ccc2c(c1)C(=Cc1ccc(O)cc1OC)C(=O)N2 [10720/D03]	0.9
CSc1ccc(C=C2C(=O)Nc3ccc(Br)c(C)c32)s1 [10720/C07]	-25.4
CCc1c(C)[nH]c(C=C2C(=O)Nc3ccc(CCCl)cc32)c1C [10719/G05]	4.0
Cc1c(Br)ccc2c1C(=Cc1ccc(F)cc1C(F)(F)F)C(=O)N2 [10719/C11]	-25.7
O=C1Nc2c(Br)cc(Br)cc2C1=Cc1ncc[nH]1 [10720/A11]	-23.2
O=C1Nc2ccc(S(=O)(=O)Nc3ccc(C(F)(F)F)cc3)cc2C1=Cc1cccc([N+](=O)[O-])c1 [10719/E10]	-32.4
Cc1[nH]c(C=C2C(=O)Nc3ccc(I)cc32)c(Br)c1Br [10717/B11]	82.7
COc1cc(O)ccc1C=C1C(=O)Nc2ccc(Br)c(C)c21 [10720/C03]	0.9
COc1cc(OC)c(C=C2C(=O)Nc3ccc(S(=O)(=O)Nc4ccc(C(F)(F)F)cc4)cc32)c(OC)c1 [10719/E06]	-42.0
Cc1c(Br)ccc2c1C(=Cc1ccccc1O)C(=O)N2 [10720/C05]	-15.3
O=C1Nc2ccc(S(=O)(=O)N3CCOCC3)cc2C1=Cc1ccc(O)cc1 [10719/F07]	20.1
Cc1cc(O)cc(O)c1C=C1C(=O)Nc2c(Br)cc(Br)cc21 [10720/A08]	-23.2
Cc1c(Br)ccc2c1C(=Cc1c(F)cc(F)cc1F)C(=O)N2 [10720/C02]	23.5
COc1cc(OC)c(C=C2C(=O)Nc3ccc(CCCl)cc32)c(OC)c1 [10719/G06]	-45.7
CNS(=O)(=O)c1ccc2c(c1)C(=Cc1c(OC)cc(OC)cc1OC)C(=O)N2 [10719/D06]	-12.2
